What follows are compounds tested against T1, human RORgT (Homo sapiens, UniProt P51449) (assay: RORgT Gal4 Luciferase Reporter Gene Assay). Details: engineered Jurkat cells overexpressing RORgT (LBD or full length) fused with Gal4 Luc reporter; 18 hours at 37° C.; luminescence.
T1 construct: expressed in transfected cells
T1 sequence (P51449 267-516): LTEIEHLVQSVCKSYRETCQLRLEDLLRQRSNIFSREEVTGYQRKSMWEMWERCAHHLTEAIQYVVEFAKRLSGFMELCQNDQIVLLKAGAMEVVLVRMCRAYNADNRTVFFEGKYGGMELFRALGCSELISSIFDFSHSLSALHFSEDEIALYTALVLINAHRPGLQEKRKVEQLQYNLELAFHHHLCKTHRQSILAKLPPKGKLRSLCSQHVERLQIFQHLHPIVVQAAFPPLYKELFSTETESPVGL
Type: cell-based
Procedure, shortened: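 Jurkat cells expressing Gal4 Luc with either RORgT LBD (aa267-516) or full-length human RORgT, 10,000 cells/well, treated with compound (40 µM to 0.67 nM final, 3-fold dilutions) for 18 h at 37° C. Steady-Glo luminescence read; inhibition of constitutive activity as % signal-window reduction relative to a control compound.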

Structure (SMILES) | EC50 [nM]
O=C(O)[C@H]1CC[C@H](C(=O)N2CC[C@@]3(S(=O)(=O)c4ccc(F)cc4)c4ccc(OCc5cc(F)ccc5Cl)cc4CC[C@@H]23)CC1 [Example 175, (1r,4r)-4-[(3aR,9bR)-7-[(2-chloro-5-fluorophenyl)methoxy]-9b-(4-fluorobenzenesulfonyl)-1H,2H,3H,3aH,4H,5H,9bH-benzo[e]indole-3-carbonyl]cyclohexane-1-carboxylic acid] | 9.5
COC(=O)[C@H]1CC[C@H](C(=O)N2CC[C@@]3(S(=O)(=O)c4ccc(F)cc4)c4ccc(OCc5cc(F)ccc5Cl)cc4CC[C@@H]23)CC1 [Example 176, methyl (1r,4r)-4-[(3aR,9bR)-7-[(2-chloro-5-fluorophenyl)methoxy]-9b-(4-fluorobenzenesulfonyl)-1H,2H,3H,3aH,4H,5H,9bH-benzo[e]indole-3-carbonyl]cyclohexane-1-carboxylate] | 56
CS(=O)(=O)N1CCC(C(=O)N2CC[C@@]3(S(=O)(=O)c4ccc(F)cc4)c4ccc(OCc5cc(F)ccc5Cl)cc4CC[C@@H]23)CC1 [Example 177, 4-[(3aR,9bR)-7-[(2-chloro-5-fluorophenyl)methoxy]-9b-(4-fluorobenzenesulfonyl)-1H,2H,3H,3aH,4H,5H,9bH-benzo[e]indole-3-carbonyl]-1-methanesulfonylpiperidine] | 18
O=C(C1CCS(=O)(=O)C1)N1CC[C@@]2(S(=O)(=O)c3ccc(F)cc3)c3ccc(OCc4cc(F)ccc4Cl)cc3CC[C@@H]12 (stereo partly drawn) [Example 178, 3-[(3aR,9bR)-7-[(2-chloro-5-fluorophenyl)methoxy]-9b-(4-fluorobenzenesulfonyl)-1H,2H,3H,3aH,4H,5H,9bH-benzo[e]indole-3-carbonyl]-1λ^6-thiolane-1,1-dione] | 12
NC(=O)N1CCC(C(=O)N2CC[C@@]3(S(=O)(=O)c4ccc(F)cc4)c4ccc(OCc5cc(F)ccc5Cl)cc4CC[C@@H]23)CC1 [Example 179, 4-[(3aR,9bR)-7-[(2-chloro-5-fluorophenyl)methoxy]-9b-(4-fluorobenzenesulfonyl)-1H,2H,3H,3aH,4H,5H,9bH-benzo[e]indole-3-carbonyl]piperidine-1-carboxamide] | 12
O=C(CN1CCS(=O)(=O)CC1)N1CC[C@@]2(S(=O)(=O)c3ccc(F)cc3)c3ccc(OCc4cc(F)ccc4Cl)cc3CC[C@@H]12 [Example 180, 4-{2-[(3aR,9bR)-7-[(2-chloro-5-fluorophenyl)methoxy]-9b-(4-fluorobenzenesulfonyl)-1H,2H,3H,3aH,4H,5H,9bH-benzo[e]indol-3-yl]-2-oxoethyl}-1λ^6-thiomorpholine-1,1-dione] | 21
O=C(C1CCS(=O)(=O)CC1)N1CC[C@@]2(S(=O)(=O)c3ccc(F)cc3)c3ccc(OCc4cc(F)ccc4Cl)cc3CC[C@@H]12 [Example 181, 4-[(3aR,9bR)-7-[(2-chloro-5-fluorophenyl)methoxy]-9b-(4-fluorobenzenesulfonyl)-1H,2H,3H,3aH,4H,5H,9bH-benzo[e]indole-3-carbonyl]-1λ^6-thiane-1,1-dione] | 8.8
CC(=O)N1CCC(C(=O)N2CC[C@@]3(S(=O)(=O)c4ccc(F)cc4)c4ccc(OCc5c(F)cccc5C(F)(F)F)cc4CC[C@@H]23)CC1 [Example 182, 1-{4-[(3aR,9bR)-7-{[2-fluoro-6-(trifluoromethyl)phenyl]methoxy}-9b-(4-fluorobenzenesulfonyl)-1H,2H,3H,3aH,4H,5H,9bH-benzo[e]indole-3-carbonyl]piperidin-1-yl}ethan-1-one] | 16
COC(=O)[C@H]1CC[C@H](C(=O)N2CC[C@@]3(S(=O)(=O)c4ccc(F)cc4)c4ccc(OCc5c(F)cccc5C(F)(F)F)cc4CC[C@@H]23)CC1 [Example 183, methyl (1r,4r)-4-[(3aR,9bR)-7-{[2-fluoro-6-(trifluoromethyl)phenyl]methoxy}-9b-(4-fluorobenzenesulfonyl)-1H,2H,3H,3aH,4H,5H,9bH-benzo[e]indole-3-carbonyl]cyclohexane-1-carboxylate] | 48

Source: patent US20230295087A1, “AGONISTS OF ROR GAMMAt” (BRISTOL-MYERS SQUIBB COMPANY, priority 2019, published 2023)
